How the values were obtained:
[1] = Sensory tasting of a Calpol ® solution, sip and spit, five assessors; format: in vivo, human; conditions: Calpol ® suspension in water, paracetamol 12.5 mg/ml, 25 μM dehydroabietic acid, 0.5% ethanol
Procedure: Taste Modulation of Paracetamol in a Commercially Available Formulation The sensory evaluation of the samples was performed by a team of five experienced assessors. Details may be taken from the following Table 1: [table]

[2] = Sensory tasting of a maltitol/paracetamol solution, sip and spit; format: in vivo, human; conditions: Paracetamol/maltitol syrup in water, paracetamol 12.5 mg/ml, 25 μM dehydroabietic acid, 0.5% ethanol, vs comparison sample
Procedure: Taste Modulation of Paracetamol in a Maltitol Formulation The sensory evaluation of the samples was performed by a team of five experienced assessors. Details may be taken from the following Table 2: [table]

[3] = Sensory tasting of a Nurofen ® tablet solution, sip and spit; format: in vivo, human; conditions: Nurofen ® tablets dissolved in water, ibuprofen 5 mg/ml, 25 μM dehydroabietic acid, 0.5% ethanol, vs comparison sample
Procedure: Taste Modulation of Ibuprofen in the Form of Tablets with Lysine (Nurofen®) The sensory evaluation of the samples was performed by a team of five experienced assessors.

[4] = Sensory tasting of a solution of a Nurofen ® suspension, sip and spit; format: in vivo, human; conditions: Nurofen ® suspension dissolved in water, ibuprofen 5 mg/ml, 25 μM dehydroabietic acid, 0.5% ethanol, vs comparison sample
Procedure: Taste Modulation of Ibuprofen in Suspension (Nurofen®) The sensory evaluation of the samples was performed by a team of five experienced assessors.

[5] = Sensory tasting of a solution of an ibuprofen suspension (Asda), sip and spit; format: in vivo, human; conditions: Ibuprofen suspension (orange taste, no sweeteners) in water, ibuprofen 5 mg/ml, 25 μM dehydroabietic acid, 0.5% ethanol, vs comparison sample
Procedure: Taste Modulation of Ibuprofen in Suspension (Asda) The sensory evaluation of the samples was performed by a team of five experienced assessors. Details may be taken from the following Table 5: [table]

[6] = Sensory tasting of a maltitol/ibuprofen solution, sip and spit; format: in vivo, human; conditions: Ibuprofen/maltitol syrup in water, 25 μM dehydroabietic acid, 0.5% ethanol, vs comparison sample
[7] = Sepulveda et al., Pharmacol. Res. 52(5), 429-437 (2005); cited from earlier work
cyclooxygenase = conditions: U.S. Pat. No. 6,365,634 B1 (RUSSEL); cited from earlier work
[8] = cited from earlier work

CC(C)c1ccc2c(c1)CC[C@H]1[C@](C)(C(=O)O)CCC[C@]21C [dehydroabietic acid]
Evaluation of the sample: metallic taste ([1]; vs comparison sample): metallic taste reduced
Evaluation of the sample: bitterness ([1]; vs comparison sample without dehydroabietic acid): very significantly less bitter
Evaluation of the sample: aftertaste [2]: pleasant aftertaste
Evaluation of the sample: bitterness [2]: Bitterness reduced and delayed
Evaluation of the sample: taste at the beginning [2]: better taste at the beginning and more
Evaluation of the sample: unpleasant/metallic taste [2]: no long-lasting unpleasant/metallic taste
Evaluation of the sample: bitterness [3]: reduced bitterness
Evaluation of the sample: delayed burning sensation in the throat [3]: no change to the delayed burning
Evaluation of the sample: typical natural taste of ibuprofen [4]: Masking of the typical natural taste
Evaluation of the sample: bitterness [5]: less bitter
Evaluation of the sample: orange aroma [5]: intensification of the orange aroma
Evaluation of the sample: overall taste [5]: more pleasant taste
Evaluation of the sample: sweetness [5]: more sweet
Evaluation of the sample: aftertaste ([6]; 5 mg/ml): less unpleasant aftertaste
Evaluation of the sample: burning sensation on the tongue/in the throat ([6]; 5 mg/ml): alleviation of the burning sensation
Evaluation of the sample: mouth dryness ([6]; 5 mg/ml): reduced mouth dryness
Evaluation of the sample: sweetness ([6]; 5 mg/ml): slightly sweet
Evaluation of the sample: bitterness ([6]; ibuprofen 5 mg/ml): less bitter
gastroprotective properties [7]: has gastroprotective properties
inhibition of the cyclooxygenase (cyclooxygenase): inhibit the cyclooxygenase

C=C1C[C@@]23CC[C@H]4[C@@](C)(CCC[C@@]4(C)C(=O)O[C@@H]4O[C@H](CO)[C@@H](O)[C@H](O)[C@H]4O)[C@@H]2CC[C@]1(O[C@@H]1O[C@H](CO)[C@@H](O)[C@H](O)[C@H]1O[C@@H]1O[C@H](CO)[C@@H](O)[C@H](O)[C@H]1O)C3 [stevioside]
daily uptake considered harmless [8]: up to 4 mg stevioside per kilogramme of bodyweight
